The results in this text go back to the supplement of paper PMC11962398.

Compound in assay [1]: T1, C[C@H]1CNCCN1c1nccc(-c2noc3c2CCC[C@@]32CCCc3sc(N)c(C#N)c32)n1 [BI-2493]
Briefly: 1 - AUC of viability dose-response curve (sensitivity) (fraction); higher = more sensitive. Particulars: 5 days. The procedure: (§1)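 PRISM pooled barcoded cancer cell line viability screen (Broad Institute) with BI-2493 at 8 doses in threefold dilutions from 0.00457 to 10 µmol/L, 5-day treatment; curves fitted per cell line. IC50 is undefined (placeholder) for resistant lines. AUC is capped at 1, and sensitivity is reported as 1 − AUC.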

Compound in assay [2]: T1, BI-2493
Particulars: 5 days. The procedure: as §1

Consider HS852T_SKIN, for which, in the assay with BI-2493 [1], the “1 - AUC of viability dose-response curve” value stood at 0.00841. Besides, the “IC50 of cell viability” value with BI-2493 [2] came to 9.99 µM.
On the same counts, the results for UACC257_SKIN are 0.0407 and 7.78 µM.
The matching figures for SKMEL28_SKIN: 0.217 and 4.05 µM.
On the same counts, the results for “WSUDLCL2_HAEMATOPOIETIC_AND_LYMPHOID_TISSUE” are 0.156 and 4.99 µM.
SCC3_HAEMATOPOIETIC_AND_LYMPHOID_TISSUE: in the assay with BI-2493 [1], the “1 - AUC of viability dose-response curve” value is 0.0243. Besides, in the assay with BI-2493 [2], the “IC50 of cell viability” value is 8.83 µM.
On the same counts, the results for KYSE410_OESOPHAGUS are 0.15 and 3.85 µM.
On the same counts, the results for SNUC2A_LARGE_INTESTINE are 0.0882 and > 10 µM.
The matching figures for NCIH226_LUNG: 0.134 and 5.37 µM.
NCIH650_LUNG: the “1 - AUC of viability dose-response curve” value with BI-2493 [1] is 0.0133. Besides, in the assay with BI-2493 [2], the “IC50 of cell viability” value came to 9.27 µM.
Take SNU410_PANCREAS: the “1 - AUC of viability dose-response curve” value in the assay with BI-2493 [1] worked out at 0.0692. Also, the “IC50 of cell viability” value with BI-2493 [2] worked out at 9.47 µM.
The matching figures for TE8_OESOPHAGUS: 0.0526 and > 10 µM.
The matching figures for LN382_CENTRAL_NERVOUS_SYSTEM: 0.0249 and 8.95 µM.
On the same counts, the results for SW1116_LARGE_INTESTINE are 0.214 and 2.37 µM.
As for HUPT3_PANCREAS, the “1 - AUC of viability dose-response curve” value in the assay with BI-2493 [1] came out at 0.182. In the assay with BI-2493 [2], the “IC50 of cell viability” value was determined as 5.16 µM.
In the case of EFO21_OVARY, the “1 - AUC of viability dose-response curve” value with BI-2493 [1] was 0.106. The “IC50 of cell viability” value in the assay with BI-2493 [2] was > 10 µM.
For SW626_LARGE_INTESTINE, the “1 - AUC of viability dose-response curve” value with BI-2493 [1] came to 0.124. In the assay with BI-2493 [2], the “IC50 of cell viability” value turned out to be 4.08 µM.
The matching figures for TE15_OESOPHAGUS: 0.381 and 0.153 µM.
SQ1_LUNG: the “1 - AUC of viability dose-response curve” value in the assay with BI-2493 [1] was found to be 0.153. Also, the “IC50 of cell viability” value with BI-2493 [2] stood at 3.68 µM.
On the same counts, the results for HT144_SKIN are 0.091 and 5.71 µM.
On the same counts, the results for WM2664_SKIN are 0.0151 and 9.22 µM.
The matching figures for PATU8902_PANCREAS: 0.0766 and 6.58 µM.
For the test system KELLY_AUTONOMIC_GANGLIA, the “1 - AUC of viability dose-response curve” value with BI-2493 [1] was determined as 0.101. The “IC50 of cell viability” value in the assay with BI-2493 [2] was determined as 4.09 µM.
The matching figures for CHLA57_BONE: 0.211 and 3.06 µM.
On the same counts, the results for SKUT1_SOFT_TISSUE are 0.207 and 4.83 µM.
The matching figures for RH4_SOFT_TISSUE: 0.0866 and 6.58 µM.
For the test system COGN278_AUTONOMIC_GANGLIA, the “1 - AUC of viability dose-response curve” value with BI-2493 [1] came to 0.0701. The “IC50 of cell viability” value with BI-2493 [2] amounted to 7.86 µM.
The matching figures for OE33_OESOPHAGUS: 0.041 and 8.75 µM.
Consider SNU407_LARGE_INTESTINE, for which, in the assay with BI-2493 [1], the “1 - AUC of viability dose-response curve” value is 0.3. In the assay with BI-2493 [2], the “IC50 of cell viability” value is 1.21 µM.
The matching figures for FLO1_OESOPHAGUS: 0.0758 and 4.86 µM.
The matching figures for OCIC5X_OVARY: 0.0098 and 9.57 µM.
The matching figures for “HDMYZ_HAEMATOPOIETIC_AND_LYMPHOID_TISSUE”: 0.00919 and 9.62 µM.
For the test system NCIH2228_LUNG, the “1 - AUC of viability dose-response curve” value with BI-2493 [1] was 0.0876. Moreover, the “IC50 of cell viability” value in the assay with BI-2493 [2] was determined as 7.89 µM.
Consider NIHOVCAR3_OVARY, for which the “1 - AUC of viability dose-response curve” value with BI-2493 [1] was 0.103. Also, in the assay with BI-2493 [2], the “IC50 of cell viability” value was 8.37 µM.
The matching figures for SNU869_BILIARY_TRACT: 0.279 and 2.14 µM.
Consider JHOC5_OVARY, for which the “1 - AUC of viability dose-response curve” value with BI-2493 [1] came out at 0.139. For the same test system, in the assay with BI-2493 [2], the “IC50 of cell viability” value is 5.69 µM.
On the same counts, the results for LS1034_LARGE_INTESTINE are 0.337 and 0.575 µM.
On to OCUG1_BILIARY_TRACT, for which the “1 - AUC of viability dose-response curve” value in the assay with BI-2493 [1] was 0.132. The “IC50 of cell viability” value in the assay with BI-2493 [2] was 4.77 µM.
On the same counts, the results for OVTOKO_OVARY are 0.123 and 4.32 µM.
Consider MDAMB361_BREAST, for which the “1 - AUC of viability dose-response curve” value with BI-2493 [1] stood at 0.14. In the assay with BI-2493 [2], the “IC50 of cell viability” value was > 10 µM.
On the same counts, the results for SNU1041_UPPER_AERODIGESTIVE_TRACT are 0.019 and 9.15 µM.
The matching figures for GB2_BILIARY_TRACT: 0.256 and 2.24 µM.
The matching figures for NCIH2170_LUNG: 0.0861 and > 10 µM.
CORL105_LUNG: the “1 - AUC of viability dose-response curve” value with BI-2493 [1] amounted to 0.157. The “IC50 of cell viability” value in the assay with BI-2493 [2] was > 10 µM.
On the same counts, the results for PEDS005TPFAD_KIDNEY are 0.199 and 4.24 µM.
On the same counts, the results for “BLUE1_HAEMATOPOIETIC_AND_LYMPHOID_TISSUE” are 0.129 and 3.33 µM.
As for A673_BONE, the “1 - AUC of viability dose-response curve” value with BI-2493 [1] worked out at 0.0226. The “IC50 of cell viability” value in the assay with BI-2493 [2] was found to be 9.04 µM.
On the same counts, the results for “LAMA84_HAEMATOPOIETIC_AND_LYMPHOID_TISSUE” are 0.34 and 0.76 µM.
The matching figures for TC32_BONE: 0.0484 and 8.86 µM.
The matching figures for MP41_UVEA: 0.119 and 5.17 µM.
Take RERFLCAD1_LUNG: the “1 - AUC of viability dose-response curve” value with BI-2493 [1] was 0.18. Besides, the “IC50 of cell viability” value with BI-2493 [2] was found to be 4.27 µM.
The matching figures for TEN_ENDOMETRIUM: 0.00891 and 9.58 µM.
As for EBC1_LUNG, the “1 - AUC of viability dose-response curve” value with BI-2493 [1] was 0.0696. Also, in the assay with BI-2493 [2], the “IC50 of cell viability” value is 6.97 µM.
The matching figures for CHLA06ATRT_SOFT_TISSUE: 0.141 and 7.12 µM.
On the same counts, the results for HCC1195_LUNG are 0.0206 and 9.21 µM.
Take TE4_OESOPHAGUS: the “1 - AUC of viability dose-response curve” value in the assay with BI-2493 [1] was found to be 0.0912. For the same test system, the “IC50 of cell viability” value with BI-2493 [2] came to 4.83 µM.
On the same counts, the results for VMRCRCZ_KIDNEY are 0.0774 and 6.92 µM.
On the same counts, the results for HS683_CENTRAL_NERVOUS_SYSTEM are 0.0105 and 9.89 µM.
Take TT2609C02_THYROID: the “1 - AUC of viability dose-response curve” value with BI-2493 [1] turned out to be 0.00366. Further, the “IC50 of cell viability” value in the assay with BI-2493 [2] is > 10 µM.
The matching figures for HT_HAEMATOPOIETIC_AND_LYMPHOID_TISSUE: 0.104 and 6.79 µM.
